The source of these data is patent US4064228A (priority 1975, dated 1977).

Assay [1] has as its system antibody raised to azomorphine conjugate (crude antisera). The assay is classed as binding. The following applies: morphine taken as 100%; for % Cross-reactivity: M50/A50 (amounts for 50% inhibition of labeled hapten binding), Abraham method; for Cross-reactivity of morphine-specific antibody (general statement): under the conditions just described / similarly measured. As to the method: After 2 hours, an equal volume of a neutral, saturated ammonium sulfate solution was added. The resulting precipitates, sedimented by centrifugation at 3000 rpm for 15 minutes at 4° C, were washed once in 50% saturated ammonium sulphate solution. Each precipitate was dissolved in 0.2 ml NCS solubilizer (Amersham-Searle Corp.) and transferred to a scintillation counting vial containing 10 ml. Aquasol dispersant (New England Nuclear Corp.) and counted in a Nuclear Chicago Liquid Scintillation Spectrometer.
Cross-reactivity was computed by the method of Abraham, J. Clin. Endocrin. & Metab.

For assay [2], the system named is antibody to 3-carboxymethyl opium alkaloid-protein antigen (Leute). The following applies: Leute et al., J.A.M.A. 1972; Nature (New Biology) 1972; cited from earlier work.
Assay [3] concerns antibody IgG raised to azomorphine conjugate (morphine-specific). The assay is classed as binding. As to the method:
The dried sorbent (300 mg) was washed with 50 ml. saline (0.9%) five times and suspended in a final volume of 15 ml, to which 5 ml of crude antiserum raised to the azomorphine conjugate of Example 5, supra was added. […] The matrix recovered by centrifugation was used as a slurry. 10 ml, […] HCL was added to sorbent. After centrifugation for 1 minute the filtered supernatant was neutralized at once with 1 M dibasic sodium phosphate. The acid base cycle was repeated three times. The recovered antibody solution was dialyzed against 12 liters of 0.1 M phosphate buffer, pH 7.4. […] The specificities of recovered antibody IgG were next determined by immune fluorescence techniques.
Quenching of antibody fluorescence was performed using antibody IgG from non pooled samples. […] Native alkaloid was added in increasing amounts to each tube containing azomorphine and IgG in a 10:1 hapten: antibody ratio (× 10^-10 moles/ml). The alkaloid was added to IgG simultaneously with or in advance of azomorphine. All dilutions were done in triplicate. Incubations including controls were carried out for 10 minutes to 12 hours at 23° C.

Assay [4] has as its system opium alkaloid antibody (prior art, raised with morphine). The following applies: summary of all prior art known to applicant; cited from earlier work.
Assay [5] deals with antibody to 3-carboxymethyl opium alkaloid-protein antigen (Spector). The following applies: Spector U.S. Pat. Nos. 3,709,868 and 3,822,245; cited from earlier work.
Assay [6] relates to antibodies to serotonin. The note with it: reported by Spector et al., Science 179:1340 (1973); cited from earlier work.
[7] abbreviates: even in vast hapten excess, azomorphine:IgG 10:1.

Like-named read-outs stand apart in the source and are kept apart here.

With `COc1ccc2c3c1O[C@H]1[C@@H](O)C=C[C@H]4[C@@H](C2)N(C)CC[C@@]341` [Codeine, codeine], in assay [1], the “% Cross-reactivity” value came to 11%. Further, the “Cross-reactivity of morphine-specific antibody (general statement)” value (“Cross-reactivity … (general statement)” for short) in assay [1] is recorded as ≤ 20%. In addition, the Cross-reactivity with codeine result in assay [2] is reported as “high cross-reactivity”; in assay [4] it was “extremely high cross-reactivity”; in assay [5] it was “very high cross-reactivity”. Further, in assay [3] (setting [7]), the “Inhibition of fluorescence quenching” value is given as “slight”.

Turning to `COc1ccc2c(c1)[C@@]13CCCC[C@H]1[C@@H](C2)N(C)CC3` [Dextromethorphan, 3-methoxy N-methyl morphinan], in assay [1], the “% Cross-reactivity” value came out at 0.01% and the “Cross-reactivity … (general statement)” value is given as ≤ 0.1%. Besides, in assay [3] (setting [7]), the “Inhibition of fluorescence quenching” value is “slight”.

As for `CCOc1ccc2c3c1O[C@H]1[C@@H](O)C=C[C@H]4[C@@H](C2)N(C)CC[C@@]341` [Ethylmorphine], the “% Cross-reactivity” value in assay [1] was 16%.

Take `CN1CC[C@]23c4c5cc(N=Nc6ccc(C(=O)O)cc6)c(O)c4O[C@H]2[C@@H](O)C=C[C@H]3[C@H]1C5` [Example 1, 2-(4'-carboxyphenylazo) morphine]: the “Cross-reactivity … (general statement)” value in assay [1] is listed as “about 100%”. Moreover, the “Association constants determined by the Sips equation applied to fluorescence data” value in assay [3] (antibody IgG from non pooled samples) lay within 1e+07 to 3e+08 L/mol. In addition, the “Quenching maxima (antibody fluorescence)” value in assay [3] (antibody IgG from non pooled samples, azomorphine as quencher, 23° C) was 56-77%.

For `CCC(=O)C(CC(C)N(C)C)(c1ccccc1)c1ccccc1` (stereo not shown) [Methadone], in assay [1], the “% Cross-reactivity” value came to 0.01% and the “Cross-reactivity … (general statement)” value is ≤ 0.1%.

Take `CC(=O)O[C@H]1C=C[C@H]2[C@H]3Cc4ccc(O)c5c4[C@@]2(CCN3C)[C@H]1O5` [Monoacetylmorphine]: in assay [1], the “% Cross-reactivity” value is recorded as 7% and the “Cross-reactivity … (general statement)” value is given as “not more than 10%”. Also, the “Inhibition of fluorescence quenching” value in assay [3] (setting [7]) is recorded as “slight”.

As to `CN1CC[C@]23c4c5ccc(O)c4O[C@H]2[C@@H](O)C=C[C@H]3[C@H]1C5` [Morphine, morphine], the “% Cross-reactivity” value in assay [1] was 100%. Also, the “Inhibition of fluorescence quenching” value in assay [3] (morphine 40 × 10^-10 moles/ml, 1 × 10^-10 moles/ml antibody, 10 × 10^-10 moles/ml azomorphine) is on record as “completely inhibited”.

Turning to `C=CCN1CC[C@]23c4c5ccc(O)c4O[C@H]2[C@@H](O)C=C[C@H]3[C@H]1C5` [N-allylnormorphine], the “% Cross-reactivity” value in assay [1] was 2%.

Take `CC(=O)Oc1ccc2c3c1O[C@H]1[C@@H](OC(C)=O)C=C[C@H]4[C@@H](C2)N(C)CC[C@@]341` [heroin, Diacetylmorphine]: in assay [1], the “% Cross-reactivity” value is 7% and the “Cross-reactivity … (general statement)” value is given as “not more than 10%”. Also, the “Inhibition of fluorescence quenching” value in assay [3] (setting [7]) is given as “slight”.

As to `COc1ccc2[nH]cc(CCN)c2c1` [methoxyserotonin, 5-methoxytryptamine], the “Cross-reactivity with serotonin antibodies” value in assay [6] is on record as “substantially complete cross-reactivity”.
